Source: patent US10814010B2, “FOXC2 inhibitor and methods of use thereof” (The Board of Regents of The University of Texas System, priority 2018, dated 2020)

Experiments:
[1] = tested on: DU145 cells; test: Transwell invasion assay, DU145; assay type: cell-based; conditions: DU145, 24 hours, vs DMSO
Experimental: (§1) Following determination of both inhibition of EMT and CSC properties, the inhibition of the migratory and invasive capabilities of both cell lines following MC-1-F2 treatment was examined through the use of a transwell invasion assay.
(§2) Matrigel invasion chambers (Corning) were allowed to come to room temperature and allowed to rehydrate for 2 hours in a cell incubator. Cells were treated 24 hours prior to assay and starved in 2% FBS in DMEM for 2 hours prior to assay. A cell suspension containing 5×10^4 cells/mL was prepared. Chemoattractant (DMEM+10% FBS) was added to the bottom of the wells. Using forceps, the inserts were transferred inside the wells and 0.5 mL of cell suspension was immediately added. The chambers were incubated for 22 hours in a humidified tissue culture incubator. After the 22 hours, the non-invading cells were removed by scrubbing the surface of the membrane. The cells were fixated with 4% formaldehyde solution for 2 minutes at room temperature. Followed by permeabilization of the membrane with 100% MeOH for 20 minutes at room temperature. The cells were stained with 0.5% crystal violet solution and several images of the wells were then taken and total number of cells counted for analysis.

[2] = tested on: MDA-MB-231 cells; test: Transwell invasion assay, MDA-MB-231; assay type: cell-based; conditions: MDA-MB-231, 20 μM, 24 hours
Experimental: Reversal of EMT mediated by MC-1-F2 was anticipated to lead to the inhibition of metastatic capability of cancer cells. […] A wound healing assay was carried out to examine the migratory capabilities of cells in closing a “wound” or gap over a period of 24 hours. […] Inhibition of migratory capabilities of cells only measures one aspect of EMT progression. EMT is marked also by increased invasiveness of cancer cells. Therefore, the invasive property of MDA-MB-231 cells treated with MC-1-F2 was examined (FIGS. 6B&C).
as §2, with “The cells were fixated with 4% formaldehyde solution for 2 minutes at room temperature. Followed by permeabilization of the membrane with 100% MeOH for 20 minutes at room temperature.” left out

[3] = tested on: LNCaP cells; test: Transwell invasion assay, LNCaP; assay type: cell-based; conditions: androgen-dependent, low FOXC2 expression, 20 μM, 24 hours
Experimental: as §1, §2

[4] = target: T1, full-length FOXC2 (Homo sapiens, UniProt Q99958); test: ELISA-like binding assay, immobilized full-length FOXC2; conditions: biotinylated compound, immobilized recombinant full-length FOXC2, Qdot655 fluorescence
T1 construct: human FOXC2 protein (amino acid residues 1-501) with a C-terminal 6 histidine tag; made in house; host or cells: E. coli BL21(DE3)
T1 sequence (Q99958 1-501): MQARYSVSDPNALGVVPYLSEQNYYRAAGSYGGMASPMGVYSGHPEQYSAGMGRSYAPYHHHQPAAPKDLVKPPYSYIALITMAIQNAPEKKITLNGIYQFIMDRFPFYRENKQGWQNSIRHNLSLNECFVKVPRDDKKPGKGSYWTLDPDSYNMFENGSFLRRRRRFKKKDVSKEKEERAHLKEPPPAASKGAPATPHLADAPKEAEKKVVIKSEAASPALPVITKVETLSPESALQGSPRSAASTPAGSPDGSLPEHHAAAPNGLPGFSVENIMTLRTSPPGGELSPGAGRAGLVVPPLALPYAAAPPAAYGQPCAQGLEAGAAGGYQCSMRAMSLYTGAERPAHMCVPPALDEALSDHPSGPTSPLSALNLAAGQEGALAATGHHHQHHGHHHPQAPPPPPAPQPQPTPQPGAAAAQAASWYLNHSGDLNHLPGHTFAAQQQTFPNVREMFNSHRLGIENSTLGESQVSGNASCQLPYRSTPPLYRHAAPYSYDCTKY
Experimental: The binding affinity of MC-1-F2 to full-length FOXC2 was determined using an ELISA-like binding assay. In this assay, varying concentrations of biotinylated MC-1-F2 or biotinylated MC-C (control; FIG. 12) were incubated in the wells with immobilized recombinant full-length FOXC2 or the DNA binding domain (DBD) of FOXC2 (FIG. 2A). After washing off unbound ligand, the wells were incubated with streptavidin-conjugated Qdot655, followed by fluorescence measurement of the wells using a plate reader. […] This is important for the specificity of MC-1-F2 to FOXC2 as several forkhead transcription factors share a very similar DNA-binding domain.
Clear bottom, black wall, 96 well plate (Corning) was coated with 1 μg/mL of full length FOXC2 or DNA binding domain (DBD) of FOXC2 protein in sensitizing buffer (0.621 g NaHCO3, 0.275 g Na2CO3 in 100 mL of water pH=9.5) overnight at 4° C. Wells were washed 3 times with 200 μL of wash buffer (lx PBS with 0.05% Tween-20). Wells were blocked with blocking buffer (1% BSA in 1×PBS with 0.05% Tween-20) for 1 hour at room temperature. 50 μL of serial dilutions of biotinylated compound in blocking buffer were added to each well and incubated for 1 hour at room temperature. Followed was the addition of […] of 20 nM of strepavidin-Qdot655 in blocking buffer for 1 hour at room temperature. […] Fluorescence was measured using a plate reader (Ex. 495, Em. 655).

[5] = target: T2, endogenously expressed FOXC2 (Homo sapiens, UniProt Q99958); test: Drug affinity responsive target stability (DARTS) assay with MDA-MB-231 cell lysate; assay type: binding; conditions: 20 μM, Western blot
T2 construct: endogenous in cells; host or cells: MDA-MB-231
T2 sequence (Q99958 1-501): T1 sequence (Q99958 1-501)
Experimental: As recombinant FOXC2 was used for the screening and the binding affinity determination, it was important to examine if MC-1-F2 binds to endogenously expressed FOXC2. To this end, a drug affinity responsive target stability assay (DARTS) was performed for MC-1-F2 and MC-C with cell lysate of MDA-MB-231 cells (FIG. 2B). In DARTS, the binding of a small molecule to its cellular target increases protease resistance of the target protein (Pai et al., 2015).
MDA-MB-231 cell lysate was harvested and incubated with 600 μL of Triton X-100 lysis buffer (50 mM Tris-HCl, 150 mM NaCl, 1 mM EDTA, 1% Triton X-100, pH 8.0) with protease inhibitor and 150 μL of phosphate inhibitor was added. Then frozen overnight followed by addition of 66.7 μL of 10×TNC buffer (1 M Tris-HCl, 5 M NaCl, 1 M CaCl2, pH 8.0) and gently mixed. The lysate was further split into 2 test tubes: Tube (1) 300 μL, Tube (2) 300 μL of cell lysate. The samples were incubated in desired concentration of compounds for 1 hour at room temperature and gently mixed. Once done the lysate of each condition was further split into 5 test tubes for each pronase condition. Pronase stock solution was thawed prior to use and 2 μL of each concentration were added to each tube and allowed to incubate for 20-30 minutes, followed by the addition of SDS loading buffer to stop pronase digestion followed by Western blot analysis.

[6] = tested on: DU145 cells; test: Co-treatment MTT assay, DU145; conditions: constant ratio
[7] = tested on: PC3 cells; test: Co-treatment MTT assay, PC3; conditions: constant ratio

Kd [4]: 26 µM | proteolysis of β-actin (DARTS) ([5]; pronase): did not affect the proteolysis β-actin
Structure (SMILES): N=C(N)NCCCCNc1nc(Nc2ccc(Oc3ccccc3)cc2)nc(N2CCN(c3nc(N)nc(Nc4ccc(N5CCOCC5)cc4)n3)CC2)n1 [MC-1-F2]
invasiveness (transwell invasion) [1]: remarkable inhibition in invasiveness | invasive property (transwell invasion) [2]: decrease in the invasive property | number of invasive cells (transwell invasion) [3]: saw to change in the number of invasive cells | protection of FOXC2 from pronase-mediated proteolysis (DARTS) [5]: protection of FOXC2 from pronase-mediated proteolysis | combination index with docetaxel (CompuSyn) [6]: negative combination index | combination effect with docetaxel ([6]; 24 hours): synergistic effects | combination effect with enzalutamide (CompuSyn) ([6]; 24 hours): only additive effects | combination index with docetaxel (CompuSyn) [7]: negative combination index | combination effect with docetaxel ([7]; 24 hours): synergistic effects | combination effect with enzalutamide (CompuSyn) ([7]; 24 hours): only additive effects
